Assay results published in publication PMC10004634 (PLOS ONE, 2023).
Read-outs that look alike come from different tables or passages of the source.

Tests used:
Assay in all cases: biochemical
Design in all cases: KINOMEscan scanMAX competition binding, DNA-tagged kinases, qPCR read-out, percent control at 300 nM
ADCK3 = target: T1, ADCK3 (Homo sapiens, UniProt Q8NI60)
T1 construct: gene COQ8A

ACVRL1 = ACVRL1 (Homo sapiens, UniProt P37023)
MLK2 = target: T2, MLK2 (Homo sapiens, UniProt Q02779)
T2 construct: gene MAP3K10

PLK4 = PLK4 (Homo sapiens, UniProt O00444)
Chain of PLK4 (O00444 whole entry): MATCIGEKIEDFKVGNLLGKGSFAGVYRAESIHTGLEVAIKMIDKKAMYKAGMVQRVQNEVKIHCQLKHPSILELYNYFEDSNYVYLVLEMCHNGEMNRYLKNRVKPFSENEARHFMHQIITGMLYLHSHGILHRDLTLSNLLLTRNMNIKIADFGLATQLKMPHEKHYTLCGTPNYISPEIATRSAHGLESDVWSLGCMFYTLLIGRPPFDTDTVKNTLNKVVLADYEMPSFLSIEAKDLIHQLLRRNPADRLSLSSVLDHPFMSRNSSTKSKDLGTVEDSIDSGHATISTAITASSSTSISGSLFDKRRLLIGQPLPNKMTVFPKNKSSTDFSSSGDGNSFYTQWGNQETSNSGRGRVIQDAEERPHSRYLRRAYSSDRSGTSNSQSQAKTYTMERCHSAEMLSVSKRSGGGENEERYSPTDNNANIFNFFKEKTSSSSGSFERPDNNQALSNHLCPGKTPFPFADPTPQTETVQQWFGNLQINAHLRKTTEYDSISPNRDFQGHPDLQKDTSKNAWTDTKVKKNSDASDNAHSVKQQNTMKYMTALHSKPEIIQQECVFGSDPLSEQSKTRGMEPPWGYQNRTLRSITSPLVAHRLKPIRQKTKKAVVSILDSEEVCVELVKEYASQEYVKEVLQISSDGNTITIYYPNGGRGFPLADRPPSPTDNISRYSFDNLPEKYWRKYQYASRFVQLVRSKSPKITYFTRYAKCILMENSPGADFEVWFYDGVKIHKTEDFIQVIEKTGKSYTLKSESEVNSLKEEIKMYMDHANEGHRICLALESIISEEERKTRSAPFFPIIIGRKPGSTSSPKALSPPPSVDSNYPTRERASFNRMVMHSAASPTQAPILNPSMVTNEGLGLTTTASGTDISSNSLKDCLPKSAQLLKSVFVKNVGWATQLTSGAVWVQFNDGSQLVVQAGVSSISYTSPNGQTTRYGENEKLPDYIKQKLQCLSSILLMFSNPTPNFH

MKK7 = target: T3, MKK7 (Homo sapiens, UniProt O14733)
T3 construct: gene MAP2K7
T3 sequence (O14733 whole entry): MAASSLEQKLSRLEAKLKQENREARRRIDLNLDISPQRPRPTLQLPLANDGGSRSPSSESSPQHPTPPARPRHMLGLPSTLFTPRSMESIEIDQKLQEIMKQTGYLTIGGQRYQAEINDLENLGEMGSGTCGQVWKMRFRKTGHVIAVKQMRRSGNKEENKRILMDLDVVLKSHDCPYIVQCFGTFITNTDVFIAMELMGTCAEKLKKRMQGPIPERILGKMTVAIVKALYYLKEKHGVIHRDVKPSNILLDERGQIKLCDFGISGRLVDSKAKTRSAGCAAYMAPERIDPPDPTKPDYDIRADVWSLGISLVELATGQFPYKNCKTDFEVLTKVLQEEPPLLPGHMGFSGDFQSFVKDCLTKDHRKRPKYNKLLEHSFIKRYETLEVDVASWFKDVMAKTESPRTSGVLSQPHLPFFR

ERBB3 = ERBB3 (Homo sapiens, UniProt P21860)
DRAK1 = target: T4, DRAK1 (Homo sapiens, UniProt Q9UEE5)
T4 construct: gene STK17A
T4 sequence (Q9UEE5 whole entry): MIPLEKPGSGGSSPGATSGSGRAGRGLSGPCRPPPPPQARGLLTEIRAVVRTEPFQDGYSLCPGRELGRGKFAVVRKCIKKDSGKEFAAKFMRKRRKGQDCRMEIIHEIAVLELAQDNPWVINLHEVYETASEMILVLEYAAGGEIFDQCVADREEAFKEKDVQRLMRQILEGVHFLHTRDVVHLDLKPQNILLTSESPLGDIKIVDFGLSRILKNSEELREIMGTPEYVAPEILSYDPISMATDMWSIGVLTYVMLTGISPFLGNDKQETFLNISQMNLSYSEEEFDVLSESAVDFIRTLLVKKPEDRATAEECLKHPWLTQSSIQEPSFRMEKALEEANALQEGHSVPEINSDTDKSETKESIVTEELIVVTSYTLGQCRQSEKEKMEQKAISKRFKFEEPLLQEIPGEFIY

PKAC-beta = target: T5, PKAC-beta (Homo sapiens, UniProt P22694)
T5 construct: gene PRKACB

MYLK4 = MYLK4 (Homo sapiens, UniProt Q86YV6)
Chain of MYLK4 (Q86YV6 whole entry): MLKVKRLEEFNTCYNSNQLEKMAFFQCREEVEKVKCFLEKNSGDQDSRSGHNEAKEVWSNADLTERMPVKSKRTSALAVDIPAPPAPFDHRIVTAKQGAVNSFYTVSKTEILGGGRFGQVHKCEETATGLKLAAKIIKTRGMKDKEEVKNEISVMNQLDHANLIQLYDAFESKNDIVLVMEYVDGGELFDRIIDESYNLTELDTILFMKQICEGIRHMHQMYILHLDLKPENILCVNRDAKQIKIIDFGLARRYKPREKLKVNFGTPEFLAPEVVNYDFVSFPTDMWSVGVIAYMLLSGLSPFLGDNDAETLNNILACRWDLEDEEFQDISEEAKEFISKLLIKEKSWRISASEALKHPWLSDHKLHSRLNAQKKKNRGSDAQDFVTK

YSK1 = target: T6, YSK1 (Homo sapiens, UniProt O00506)
T6 construct: gene STK25

INSRR = INSRR (Homo sapiens, UniProt P14616)
EPHA8 = EPHA8 (Homo sapiens, UniProt P29322)
TSSK1B = TSSK1B (Homo sapiens, UniProt Q9BXA7)
CSNK1D = CSNK1D (Homo sapiens, UniProt P48730)
[1] = target: T7, RSK4(Kin.Dom.1-N-terminal) (Homo sapiens, UniProt Q9UK32)
T7 construct: gene RPS6KA6; Kin.Dom.1-N-terminal

CSNK1G2 = CSNK1G2 (Homo sapiens, UniProt P78368)
MAPKAPK2 = MAPKAPK2 (Homo sapiens, UniProt P49137)
Chain of MAPKAPK2 (P49137 whole entry): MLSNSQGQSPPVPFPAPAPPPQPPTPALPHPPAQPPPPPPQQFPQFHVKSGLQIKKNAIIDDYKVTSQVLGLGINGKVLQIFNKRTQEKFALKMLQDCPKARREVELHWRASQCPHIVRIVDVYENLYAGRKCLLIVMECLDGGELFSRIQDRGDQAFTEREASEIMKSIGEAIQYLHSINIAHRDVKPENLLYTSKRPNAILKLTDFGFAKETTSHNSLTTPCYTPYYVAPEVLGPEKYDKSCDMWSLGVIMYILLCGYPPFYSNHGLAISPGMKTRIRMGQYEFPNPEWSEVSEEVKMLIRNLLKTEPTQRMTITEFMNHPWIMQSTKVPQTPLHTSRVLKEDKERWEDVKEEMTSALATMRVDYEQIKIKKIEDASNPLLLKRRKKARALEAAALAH

CSNK1G1 = CSNK1G1 (Homo sapiens, UniProt Q9HCP0)
Chain of CSNK1G1 (Q9HCP0 whole entry): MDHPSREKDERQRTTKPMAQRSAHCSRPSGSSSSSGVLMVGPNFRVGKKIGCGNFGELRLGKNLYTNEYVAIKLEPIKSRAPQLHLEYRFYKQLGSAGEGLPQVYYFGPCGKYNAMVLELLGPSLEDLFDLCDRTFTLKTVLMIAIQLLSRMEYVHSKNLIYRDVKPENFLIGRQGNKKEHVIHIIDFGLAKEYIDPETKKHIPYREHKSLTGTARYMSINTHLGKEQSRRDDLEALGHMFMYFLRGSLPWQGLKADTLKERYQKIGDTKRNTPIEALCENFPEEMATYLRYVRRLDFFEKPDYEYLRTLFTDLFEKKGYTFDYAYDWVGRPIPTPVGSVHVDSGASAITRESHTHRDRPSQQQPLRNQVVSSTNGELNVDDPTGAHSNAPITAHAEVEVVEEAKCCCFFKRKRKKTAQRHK

CDC2L1 = target: T8, CDC2L1 (Homo sapiens, UniProt P21127)
T8 construct: gene CDK11B
T8 sequence (P21127 whole entry): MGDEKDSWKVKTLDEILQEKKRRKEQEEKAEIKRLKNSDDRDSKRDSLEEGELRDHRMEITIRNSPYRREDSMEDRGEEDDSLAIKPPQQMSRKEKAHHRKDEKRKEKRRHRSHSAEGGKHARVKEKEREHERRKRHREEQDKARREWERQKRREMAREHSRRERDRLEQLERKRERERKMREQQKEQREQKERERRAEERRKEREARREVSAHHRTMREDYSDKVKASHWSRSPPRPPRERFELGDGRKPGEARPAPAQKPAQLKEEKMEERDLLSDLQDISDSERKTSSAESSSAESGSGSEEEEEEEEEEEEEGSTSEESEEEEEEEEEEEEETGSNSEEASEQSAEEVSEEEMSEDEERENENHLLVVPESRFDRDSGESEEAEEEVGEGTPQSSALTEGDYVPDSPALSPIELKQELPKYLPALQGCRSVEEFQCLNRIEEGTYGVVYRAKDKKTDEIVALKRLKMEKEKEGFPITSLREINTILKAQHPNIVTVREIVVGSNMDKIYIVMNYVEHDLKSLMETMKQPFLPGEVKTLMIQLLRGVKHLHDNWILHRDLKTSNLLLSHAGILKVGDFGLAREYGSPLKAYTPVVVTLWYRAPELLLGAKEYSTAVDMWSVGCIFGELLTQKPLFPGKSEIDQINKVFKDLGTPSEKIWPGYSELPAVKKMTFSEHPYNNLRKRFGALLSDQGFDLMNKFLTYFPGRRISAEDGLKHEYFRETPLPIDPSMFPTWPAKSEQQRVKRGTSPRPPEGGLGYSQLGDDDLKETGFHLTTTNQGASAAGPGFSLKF

CDK7 = CDK7 (Homo sapiens, UniProt P50613)
FGFR4 = FGFR4 (Homo sapiens, UniProt P22455)
ANKK1 = ANKK1 (Homo sapiens, UniProt Q8NFD2)
ADCK4 = target: T9, ADCK4 (Homo sapiens, UniProt Q96D53)
T9 construct: gene COQ8B

[2] = read-out: Percent control / Tirabrutinib
[3] = read-out: Percent control / Ibrutinib
[4] = read-out: Percent control / Zanubrutinib
[5] = read-out: Percent control / Acalabrutinib

Chain of ACVRL1 (P37023 whole entry): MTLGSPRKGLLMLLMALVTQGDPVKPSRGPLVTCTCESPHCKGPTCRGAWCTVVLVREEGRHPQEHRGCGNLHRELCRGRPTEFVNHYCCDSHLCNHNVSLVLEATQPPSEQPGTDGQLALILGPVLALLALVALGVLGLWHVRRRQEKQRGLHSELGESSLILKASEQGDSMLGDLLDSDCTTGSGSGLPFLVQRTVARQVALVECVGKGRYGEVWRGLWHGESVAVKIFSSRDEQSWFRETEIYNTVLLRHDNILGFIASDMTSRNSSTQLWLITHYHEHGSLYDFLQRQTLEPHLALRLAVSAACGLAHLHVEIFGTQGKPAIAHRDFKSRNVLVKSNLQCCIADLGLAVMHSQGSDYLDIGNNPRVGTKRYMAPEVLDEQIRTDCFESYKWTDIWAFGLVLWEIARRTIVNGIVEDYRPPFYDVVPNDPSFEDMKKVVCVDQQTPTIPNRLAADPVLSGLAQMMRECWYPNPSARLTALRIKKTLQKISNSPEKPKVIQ
T1 sequence (Q8NI60 whole entry): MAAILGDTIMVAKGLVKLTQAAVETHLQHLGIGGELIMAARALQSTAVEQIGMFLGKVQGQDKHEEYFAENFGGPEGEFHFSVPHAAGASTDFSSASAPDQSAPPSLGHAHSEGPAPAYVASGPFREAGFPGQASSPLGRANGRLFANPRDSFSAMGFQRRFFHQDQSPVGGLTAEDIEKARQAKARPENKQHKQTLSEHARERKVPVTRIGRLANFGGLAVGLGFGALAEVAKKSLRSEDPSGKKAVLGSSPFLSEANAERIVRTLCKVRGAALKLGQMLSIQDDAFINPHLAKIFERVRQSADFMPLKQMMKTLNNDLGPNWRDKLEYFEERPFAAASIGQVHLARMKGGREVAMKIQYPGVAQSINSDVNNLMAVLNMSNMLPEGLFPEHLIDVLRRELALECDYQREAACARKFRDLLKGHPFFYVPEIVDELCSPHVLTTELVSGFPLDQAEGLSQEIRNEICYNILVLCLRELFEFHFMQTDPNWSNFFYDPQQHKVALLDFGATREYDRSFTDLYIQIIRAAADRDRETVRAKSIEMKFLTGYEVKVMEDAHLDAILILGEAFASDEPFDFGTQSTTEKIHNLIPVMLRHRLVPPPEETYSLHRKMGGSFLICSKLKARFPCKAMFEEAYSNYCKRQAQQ

CC#CC(=O)N1CC[C@@H](n2c(=O)n(-c3ccc(Oc4ccccc4)cc3)c3c(N)ncnc32)C1 [Tirabrutinib]
remaining binding at 0.3 µM (ADCK3; [2]): 95%
remaining binding at 0.3 µM (ACVRL1; [2]): 94%
remaining binding at 0.3 µM (MLK2; [2]): 77%

C=CC(=O)N1CCC[C@@H](n2nc(-c3ccc(Oc4ccccc4)cc3)c3c(N)ncnc32)C1 [Ibrutinib]
remaining binding at 0.3 µM (ADCK3; [3]): 98%
remaining binding at 0.3 µM (PLK4; [3]): 86%
remaining binding at 0.3 µM (MKK7; [3]): 8.1%
remaining binding at 0.3 µM (ERBB3; [3]): 1.2%
remaining binding at 0.3 µM (DRAK1; [3]): 74%
remaining binding at 0.3 µM (PKAC-beta; [3]): 85%
remaining binding at 0.3 µM (MYLK4; [3]): 94%
remaining binding at 0.3 µM (YSK1; [3]): 85%
remaining binding at 0.3 µM (MLK2; [3]): 90%

C=CC(=O)N1CCC([C@@H]2CCNc3c(C(N)=O)c(-c4ccc(Oc5ccccc5)cc4)nn32)CC1 [Zanubrutinib]
remaining binding at 0.3 µM (PLK4; [4]): 84%
remaining binding at 0.3 µM (INSRR; [4]): 96%
remaining binding at 0.3 µM (EPHA8; [4]): 90%
remaining binding at 0.3 µM (MKK7; [4]): 80%
remaining binding at 0.3 µM (ACVRL1; [4]): 75%
remaining binding at 0.3 µM (TSSK1B; [4]): 100%
remaining binding at 0.3 µM (CSNK1D; [4]): 100%
remaining binding at 0.3 µM [1, 4]: 100%
remaining binding at 0.3 µM (CSNK1G2; [4]): 88%
remaining binding at 0.3 µM (ERBB3; [4]): 87%
remaining binding at 0.3 µM (MAPKAPK2; [4]): 96%
remaining binding at 0.3 µM (CSNK1G1; [4]): 91%
remaining binding at 0.3 µM (CDC2L1; [4]): 90%
remaining binding at 0.3 µM (CDK7; [4]): 100%
remaining binding at 0.3 µM (PKAC-beta; [4]): 82%
remaining binding at 0.3 µM (FGFR4; [4]): 91%
remaining binding at 0.3 µM (MYLK4; [4]): 96%
remaining binding at 0.3 µM (ANKK1; [4]): 100%
remaining binding at 0.3 µM (ADCK4; [4]): 100%
remaining binding at 0.3 µM (YSK1; [4]): 88%

CC#CC(=O)N1CCC[C@H]1c1nc(-c2ccc(C(=O)Nc3ccccn3)cc2)c2c(N)nccn12 [Acalabrutinib]
remaining binding at 0.3 µM (INSRR; [5]): 91%
remaining binding at 0.3 µM (EPHA8; [5]): 96%
remaining binding at 0.3 µM (TSSK1B; [5]): 93%
remaining binding at 0.3 µM (CSNK1D; [5]): 85%
remaining binding at 0.3 µM [1, 5]: 82%
remaining binding at 0.3 µM (CSNK1G2; [5]): 87%
remaining binding at 0.3 µM (MAPKAPK2; [5]): 72%
remaining binding at 0.3 µM (CSNK1G1; [5]): 90%
remaining binding at 0.3 µM (CDC2L1; [5]): 93%
remaining binding at 0.3 µM (CDK7; [5]): 68%
remaining binding at 0.3 µM (DRAK1; [5]): 95%
remaining binding at 0.3 µM (FGFR4; [5]): 91%
remaining binding at 0.3 µM (ANKK1; [5]): 58%
remaining binding at 0.3 µM (ADCK4; [5]): 96%
